{"source": "patent US11667949B2", "about": "“Reporter construct and biosensor for interferon second messenger 2-5A” (The Trustees of Princeton University, priority 2018, dated 2023)", "key": {"A549 cells [1]": {"system": "A549 cells", "assay": "Live cell 2-5A measurements in A549 cells stably expressing FLAG-V6 biosensor", "type": "cell-based, human", "conditions": "pre-treatment before poly-IC", "method": "Live cell 2-5A measurements in stable cell lines expressing V6 or V6-Y312A reporters: A549 or HeLa cells stably expressing V6 or V6-Y312A control reporters were seeded at a density of 1·10^4 /well on TC-treated, clear flat bottom white 96-well plates. Before transfection with poly-IC, cells were pre-treated with 100 μM D-luciferin ethyl ester (1% DMSO) (f/c) (Marker Gene Technologies). After one hour of substrate pre-treatment, a poly-IC/lipofectamine complex (1 μg/mL Poly-IC+0.5 μL Lipofectamine 2000 in a final volume of 100 μL) was added to the cells along with a second addition of 100 μM D-luciferin and HEPES (pH 7.5; 20 mM f/c). Dilutions of poly-IC were made by diluting the poly-IC/lipofectamine complexes. Luminescence measurements were taken in repeat-mode using plate reader at time intervals shown on the figures. After three hours, fresh D-luciferin ethyl ester (100 μM) was re-supplied at every hour to ensure excess reporter substrate. Luminescence acquisition time was one minute per well. For IFN-β pre-treatment, a dose of 1000 U/mL (f/c) was used 24 hours before poly-IC treatment."}, "A549 cells [2]": {"system": "A549 cells", "assay": "Secreted IFN detection by qPCR in conditioned media", "type": "cell-based, human", "procedure": "qRT-PCR analysis: Cells were harvested in 350 μL RLT buffer (Qiagen) and RNA was purified according to the RNeasy protocol (Qiagen). cDNA was prepared using oligo-dT and a High Capacity RNA to cDNA kit (Applied Biosystems). qPCR was performed using the Power SYBR green PCR mix in a 96 well format on StepOnePlus qPCR instrument (Life Technologies). qPCR primers used in this work were from Integrated DNA Technologies and are available via the manufacturer if not specifically recited in the Table below.\nSecreted IFN detection by qPCR in conditioned media: A549 WT and RNase L knock out (KO) cells in 12-well plates were transfected with 1 μg/mL poly-IC and lipofectamine 2000 for 0.5, 2 or 6 hours. At the end of the time course, cells were washed four times with 1 mL of growth medium (RPMI+10% FBS) to remove residual poly IC. After the washes, fresh 1 mL medium was added and the cells were kept in fresh media for one hour to allow for protein secretion. Treatments of naive cells with conditioned media were done in a separate 12-well plate and using cells seeded 1 day before the analysis. Naïve cell media was replaced with 1 mL of the conditioned medium from above. Cells were grown in the conditioned media for 16 hours and harvested in 300 μL RLT (Qiagen). For pulse-chase experiments in FIG. 9C, 10 μM anisomycin was added 3 hours after poly-IC addition. Anisomycin level was additionally maintained during the last hour allocated for IFN secretion into fresh media."}, "HeLa cells [3]": {"system": "HeLa cells", "conditions": "stable monoclonal HeLa reporter cells", "method": "In an additional experiment, HeLa cells were stably transduced with a lentiviral construct containing the reporter. A monoclonal population of reporter expressing cells was then selected by limiting serial dilution. For reporter assay, these monoclonal cells were seeded at a cell density of 2×10^5 cells per well on 96 well plates. After the cells adhered to the plates (in approximately 6 hours), the cells were pre-treated with 100 uM D-luciferin ethyl ester (1% DMSO) (f/c). After one hour of substrate pre-treatment, poly IC-Lipofectamine complexes were added to the cells along with a second addition of 100 uM D-luciferin substrate. Luminescence measurements were taken on Repeated mode in the plate reader: every 15 minutes for the course of three hours. Luminescence acquisition time: 1 minute/well."}, "HeLa cells [4]": {"system": "HeLa cells", "conditions": "poly IC 6 hours, <3 kDa flow-through, V6 reporter in vitro", "method": "In vitro Luminescence assays: The luminescence reactions contained 20 mM Hepes (pH7.4), 100 mM NaCl, 5 mM MgCl2, 5% (vol/vol) glycerol, 1 mM DTT, 3 mM ATP, 250 uM Coenzyme A hydrate (Sigma Aldrich). After adding specified concentrations of reporter protein and 2-5A (p2-5A3, pA3), D-luciferin, Potassium salt (Gold Biotechnology) was added at a final concentration of 400 uM. The reactions were allowed to stabilize for 2 minutes and immediately after luminescence measurements were taken on a plate reader (Berthold Technologies). Acquisition time for the reaction was set to be 10 seconds.\n2-5A extraction: HeLa cells treated for 6 hours with 1 ug/ml polyIC were lysed with RIPA (Thermo Fisher Scientific) buffer along with 0.5 mM PMSF protease inhibitor. The lysate was spun down at 12000 g for 10 minutes at 4° C. The supernatant was passed through a 3 KDa centrifugal filter to collect small nucleic acids. An equivalent amount of RNA from mock or polyIC treated sample was added to the luminescence assay."}, "HeLa cells [5]": {"system": "HeLa cells", "assay": "Reporter assay in live cells transfected with V6 or Y312A V6 constructs", "type": "cell-based, human", "procedure": "Reporter assay in live cells: NLS and NES tag sequences cloned in the reporter immediately following the FLAG tag were […] (SEQ ID NO: 4) and […] (SEQ ID NO: 5), respectively. […] These 96 well plates were clear bottom and white for optimum luminescence readings. […] Luminescence acquisition time: 1 minute/well."}, "A549 cells [6]": {"system": "A549 cells", "assay": "Nascent protein synthesis by puromycin pulse labeling", "type": "cell-based, human", "procedure": "Ribopuromycilation and ^35S labeling to monitor nascent translation: To generate puromycin-tagged nascent peptides, human cells were treated with 0.1-1 μg/mL of poly-IC for times specified on the figures, after which the growth media was supplemented with 10 μg/mL puromycin (Invitrogen). Puromycin pulse lasted for 5 min. Cells were trypsinized and harvested in NuPAGE LDS sample buffer for western blot analyses. Proteins were separated by 10% BisTris PAGE (NuPAGE), and transferred on PVDF membranes (Life Technologies). The membrane was stained with Ponceau to normalize for sample loading, then washed and blocked with 5% non-fat dry milk in TBST buffer. The membranes were probed with 1:1000 mouse anti-puromycin antibody (EMD Millipore) that binds to de novo synthesized proteins, followed by horseradish peroxidase-conjugated goat anti-mouse secondary antibody (1:10,000, Jackson ImmunoResearch). Metabolic labeling with ^35S was conducted using the following procedure. After cell treatment with poly-IC, media was changed to methionine-free RPMI+10% FBS supplemented with 11 μCi EASY TAG™ EXPRESS35S Protein Labeling Mix (Perkin Elmer). Cellular proteins were resolved by 10% BisTris PAGE (NuPAGE) and analyzed by phosphorimaging."}, "RNase L": {"target": "T1, RNase L (Homo sapiens, UniProt Q05823)", "T1 sequence (Q05823 1-741)": "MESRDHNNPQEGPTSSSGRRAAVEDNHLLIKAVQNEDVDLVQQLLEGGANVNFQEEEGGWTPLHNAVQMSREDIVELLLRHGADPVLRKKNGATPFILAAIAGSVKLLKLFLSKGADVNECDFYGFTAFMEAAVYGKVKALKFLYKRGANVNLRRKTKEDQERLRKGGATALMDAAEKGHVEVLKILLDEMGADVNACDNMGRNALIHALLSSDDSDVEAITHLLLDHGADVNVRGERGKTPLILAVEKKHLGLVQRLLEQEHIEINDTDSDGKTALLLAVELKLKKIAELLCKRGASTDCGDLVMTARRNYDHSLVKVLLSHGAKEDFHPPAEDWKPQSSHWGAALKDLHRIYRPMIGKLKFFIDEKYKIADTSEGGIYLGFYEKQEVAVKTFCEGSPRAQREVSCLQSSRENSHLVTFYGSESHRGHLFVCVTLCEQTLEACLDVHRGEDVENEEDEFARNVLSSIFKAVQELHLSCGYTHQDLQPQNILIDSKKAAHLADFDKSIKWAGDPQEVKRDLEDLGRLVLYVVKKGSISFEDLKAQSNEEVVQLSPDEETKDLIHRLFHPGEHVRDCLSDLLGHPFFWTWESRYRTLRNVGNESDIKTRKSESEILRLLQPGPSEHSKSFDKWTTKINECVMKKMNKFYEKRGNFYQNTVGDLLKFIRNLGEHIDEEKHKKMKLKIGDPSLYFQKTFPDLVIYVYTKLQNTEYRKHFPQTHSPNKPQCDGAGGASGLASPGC", "conditions": "cited from earlier work"}}, "note": "Read-outs that look alike come from different tables or passages of the source. Numbered stars: 1 amine (or outer) side, 2 acyl side, 3 side chain; on linkers, the order of the positions; unused ones are H or OH. Bridge positions count the residues as written; N and C are the ends. Square brackets hold non-standard residues; d marks the D form. Peptide text beside a SMILES is read from it. I, II: the chains in the order shown. Actinocin(9to1) = Cc1c2oc3c(C)ccc(C(=O)[*:1])c3nc-2c(C(=O)[*:2])c(N)c1=O; NMeV = CN[C@H](C(=O)O)C(C)C; Sar = CNCC(=O)O", "data": [{"compound": "Cc1c2oc3c(C)ccc(C(=O)N[C@@H]4C(=O)N[C@H](C(C)C)C(=O)N5CCC[C@H]5C(=O)N(C)CC(=O)N(C)[C@@H](C(C)C)C(=O)O[C@@H]4C)c3nc-2c(C(=O)N[C@@H]2C(=O)N[C@H](C(C)C)C(=O)N3CCC[C@H]3C(=O)N(C)CC(=O)N(C)[C@@H](C(C)C)C(=O)O[C@@H]2C)c(N)c1=O", "note": "[Actinomycin D] (I: T[dV]P[Sar][NMeV] / II: T[dV]P[Sar][NMeV]; ester I:1-I:C, II:1-II:C; linker I:N-II:N via Actinocin(9to1))", "values": [{"measurement": "OAS/RNase L activation after pre-treatment with transcription inhibitor", "setting": "A549 cells [1]", "result": "not inhibited"}]}, {"compound": "poly-Inosine/poly-Cytidine [poly IC]", "values": [{"measurement": "ISG induction by conditioned media", "setting": "A549 cells [2]; media of poly I:C-treated WT and RNase L−/− cells, time points beyond translational arrest", "result": "two orders of magnitude"}, {"measurement": "2-5A build-up, fold change with poly IC vs without poly IC", "setting": "HeLa cells [3]; 30 mins", "result": 3.7, "unit": "fold"}, {"measurement": "maximum fold change of reporter", "setting": "HeLa cells [3]; 3.5 hours after poly IC treatment", "result": 28, "unit": "fold"}, {"measurement": "stimulation of the reporter by nucleic acids from poly IC treated vs mock treated cells", "setting": "HeLa cells [4]", "result": "roughly 8 fold"}, {"measurement": "2-5A build-up, fold, poly IC treated vs untreated cells", "setting": "HeLa cells [5]; 30 minutes", "result": 2.4, "unit": "fold"}, {"measurement": "maximum fold change of reporter", "setting": "HeLa cells [5]; 3 hours post poly IC treatment", "result": 30, "unit": "fold"}, {"measurement": "global translation", "setting": "A549 cells [6]; WT A549 cells, before ISG induction", "result": "halted global translation"}]}, {"compound": "COc1ccc(C[C@H]2NC[C@H](O)[C@H]2OC(C)=O)cc1", "note": "[anisomycin]", "values": [{"measurement": "IFN production (IFN activity in the media)", "setting": "A549 cells [2]; 10 μM anisomycin added 3 hours after poly-IC, before the IFN response", "result": "blocked IFN production"}, {"measurement": "effect on ISG mRNAs", "setting": "A549 cells [2]; naïve cells, control experiment", "result": "mild stimulatory effect"}]}, {"compound": "2′-5′-linked oligoadenylates [2-5A]", "values": [{"measurement": "affinity for latent RNase L", "setting": "RNase L", "result": "sub-nanomolar"}, {"measurement": "attenuation of basal cell-wide translation", "setting": "A549 cells [6]; 2-5A activated RNase L", "result": "more than 1,000 fold"}]}]}
